Where two headings read alike, the source gives them in different places. Numbered stars: 1 amine (or outer) side, 2 acyl side, 3 side chain; on linkers, the order of the positions; unused ones are H or OH. Square brackets hold non-standard residues; d marks the D form. Peptide text beside a SMILES is read from it. * marks the point of attachment. ξ: configuration not given here. X1 = CC[C@H](C)[C@H]([C@@H](CC(=O)[*:2])OC)N(C)[*:1]; Phe(4-NO2) = N[C@@H](Cc1ccc([N+](=O)[O-])cc1)C(=O)O; Dolaproine = CO[C@@H]([C@@H]1CCCN1)[C@@H](C)C(=O)O; ξDil = CC[C@H](C)C([C@@H](CC(=O)[*:2])OC)N(C)[*:1]; Dil = CC[C@H](C)[C@H](NC)[C@@H](CC(=O)O)OC; Phe(4-NH2) = Nc1ccc(C[C@H](N)C(=O)O)cc1; NMe2Val = CC(C)[C@@H](C(=O)*)N(C)C; X2 = C[C@@H](N*)[C@@H](O)c1ccccc1; NMeV = CN[C@H](C(=O)O)C(C)C; ξF = NC(Cc1ccccc1)C(=O)O; ξV = CC(C)C(N)C(=O)O
System: FaDu cells
Experiment: Potency of AF derivatives: FaDu cell viability by the MTT method
Type: cell-based
Details: for IC50: exposure to toxins for 120 hours, MTT; for potency in FaDu cells compared with MMAE and auristatin F (AF): statement in words on Table 2
Procedure: FaDu cells were seeded in Corning CellBIND 96-well plates at densities of 2500 cells/well. […] Then, the cells were rinsed once and assayed for cell viability with the MTT method. The old medium was aspirated and 100 uL of 0.5 mg/mL MTT containing medium was added into each well. After incubation for 4 hours, the MTT reagent was removed and the precipitate was dissolved in DMSO. The photometry intensity of the cells was measured by the microplate reader (Multiskan Ascent, Thermo Labsystems) of absorbance wavelength at 570 nm. Cell viability was calculated by the following equation. Cell Viability (%)=(Ins−Inb)/(Inc−Inb)×100%
In this equation, “Ins” is the photometry intensity of the cells incubated with a given toxin, “Inb” is the intensity of a blank well without cell seeding, and “Inc” is the intensity of the cells incubated with the culture medium only (positive control).

Q: With `CC[C@H](C)C([C@@H](CC(=O)N1CCC[C@H]1[C@H](OC)[C@@H](C)C(=O)NC(Cc1ccc(N)cc1)C(=O)Nc1cnc2ccccc2c1)OC)N(C)C(=O)C(NC(=O)[C@H](C(C)C)N(C)C)C(C)C` (some centres unmarked) [3AQ-ANF] as the compound, how does the IC50 (Homo sapiens, FaDu, 120 h, n=6) read?
A: 0.35 nM

Q: What about the “potency in FaDu cells compared with MMAE and auristatin F (AF)” value of the same compound?
A: comparable to the well-known toxin MMAE

Q: For `CC[C@H](C)C([C@@H](CC(=O)N1CCC[C@H]1[C@H](OC)[C@@H](C)C(=O)NC(Cc1ccccc1)C(=O)NCCc1ccc(N)cc1)OC)N(C)C(=O)C(NC(=O)[C@H](C(C)C)N(C)C)C(C)C` (some centres unmarked) [APEA-AF], which IC50 (Homo sapiens, FaDu, 120 h, n=6) is on record?
A: 0.7 nM

Q: And the “potency in FaDu cells compared with MMAE and auristatin F (AF)” value?
A: comparable to the well-known toxin MMAE

Q: Which IC50 (Homo sapiens, FaDu, 120 h, n=6) does the source give for `CC[C@H](C)C([C@@H](CC(=O)N1CCC[C@H]1[C@H](OC)[C@@H](C)C(=O)NC(Cc1ccccc1)C(=O)N[C@@H](Cc1ccc([N+](=O)[O-])cc1)C(=O)O)OC)N(C)C(=O)C(NC(=O)[C@H](C(C)C)N(C)C)C(C)C` (some centres unmarked) [NPEA(COOH)-AF] (NMe2Val-[ξV][ξDil][Dolaproine][ξF][Phe(4-NO2)]-OH) here?
A: 23.2 nM

Q: With `CC[C@H](C)C([C@@H](CC(=O)N1CCC[C@H]1[C@H](OC)[C@@H](C)C(=O)NC(Cc1ccccc1)C(=O)N[C@@H](Cc1ccc([N+](=O)[O-])cc1)C(=O)OC)OC)N(C)C(=O)C(NC(=O)[C@H](C(C)C)N(C)C)C(C)C` (some centres unmarked) [NPEA(COOMe)-AF] (NMe2Val-[ξV][ξDil][Dolaproine][ξF][Phe(4-NO2)]-OMe) as the compound, how does the IC50 (Homo sapiens, FaDu, 120 h, n=6) read?
A: 0.44 nM

Q: And the “potency in FaDu cells compared with MMAE and auristatin F (AF)” value?
A: comparable to the well-known toxin MMAE

Q: `CC[C@H](C)C([C@@H](CC(=O)N1CCC[C@H]1[C@H](OC)[C@@H](C)C(=O)NC(Cc1ccc(N)cc1)C(=O)Nc1cnc2ccccc2c1)OC)N(C)C(=O)C(NC(=O)[C@H](C(C)C)N(C)C)C(C)C` (some centres unmarked) [3AQ-AAF] was tested. Which IC50 (n=6) did it give?
A: 0.49 nM

Q: Which IC50 (n=6) does the source give for `CC[C@H](C)C([C@@H](CC(=O)N1CCC[C@H]1[C@H](OC)[C@@H](C)C(=O)NC(Cc1ccc(N)cc1)C(=O)NCCc1ccccc1)OC)N(C)C(=O)C(NC(=O)[C@H](C(C)C)N(C)C)C(C)C` (some centres unmarked) [PEA-AAF] here?
A: 0.39 nM

Q: What does the source list for `CC[C@H](C)C([C@@H](CC(=O)N1CCC[C@H]1[C@H](OC)[C@@H](C)C(=O)NC(Cc1ccc(N)cc1)C(=O)NCCc1ccccc1)OC)N(C)C(=O)C(NC(=O)[C@H](C(C)C)N(C)C)C(C)C` (some centres unmarked) [PEA-ANF]?
A: IC50 (n=6): 1.26 nM; potency in FaDu cells compared with MMAE and auristatin F (AF): comparable to the well-known toxin MMAE

Q: `CC[C@H](C)[C@@H]([C@@H](CC(=O)N1CCC[C@H]1[C@H](OC)[C@@H](C)C(=O)N[C@H](C)[C@@H](O)c1ccccc1)OC)N(C)C(=O)[C@@H](NC(=O)[C@@H](NC)C(C)C)C(C)C` [MMAE, reference compound] (H-[NMeV]V[Dil][Dolaproine]-X2) was tested. Which IC50 (n=6, read-out: IC50) did it give?
A: 0.38 nM

Q: How did the IC50 (n=6, read-out: IC50) turn out when `CC[C@H](C)[C@@H]([C@@H](CC(=O)N1CCC[C@H]1[C@H](OC)[C@@H](C)C(=O)N[C@@H](Cc1ccccc1)C(=O)O)OC)N(C)C(=O)[C@@H](NC(=O)[C@H](C(C)C)N(C)C)C(C)C` [AF, auristatin F, reference compound] (NMe2Val-V[Dil][Dolaproine]F-OH) was run?
A: 15.2 nM

Q: Which IC50 (Homo sapiens, FaDu, 120 h, n=6) does the source give for `CC[C@H](C)[C@H]([C@@H](CC(=O)N1CCC[C@H]1[C@H](OC)[C@@H](C)C(=O)NC(Cc1ccccc1)C(=O)N[C@@H](Cc1ccc(N)cc1)C(=O)OC)OC)N(C)C(=O)[C@@H](NC(=O)[C@H](C(C)C)N(C)C)C(C)C` (some centres unmarked) [APEA(COOMe)-AF] (NMe2Val-V[X1][Dolaproine][ξF][Phe(4-NH2)]-OMe) here?
A: 0.93 nM

Q: And the “potency in FaDu cells compared with MMAE and auristatin F (AF)” value?
A: comparable to the well-known toxin MMAE

Q: With `CC[C@H](C)[C@H]([C@@H](CC(=O)N1CCC[C@H]1[C@H](OC)[C@@H](C)C(=O)NC(Cc1ccccc1)C(=O)N[C@@H](Cc1ccc(N)cc1)C(=O)O)OC)N(C)C(=O)[C@@H](NC(=O)[C@H](C(C)C)N(C)C)C(C)C` (some centres unmarked) [APEA(COOH)-AF] (NMe2Val-V[X1][Dolaproine][ξF][Phe(4-NH2)]-OH) as the compound, how does the IC50 (Homo sapiens, FaDu, 120 h, n=6) read?
A: > 100 nM

Q: What about the “potency in FaDu cells compared with MMAE and auristatin F (AF)” value of the same compound?
A: least potency

Source: patent US10683327B2, “Compounds, linker-drugs and ligand-drug conjugates” (priority 2015, dated 2020)
